Non-standard residues stand in square brackets, D forms with d. Residues, ends and D or L forms follow the SMILES beside them. ξ: configuration not given here. Ile(3ξ) = CCC(C)[C@H](N)C(=O)O
Target: T1, Pituitary adenylate cyclase-activating polypeptide (Homo sapiens, UniProt P18509)
T1 sequence (P18509 whole entry): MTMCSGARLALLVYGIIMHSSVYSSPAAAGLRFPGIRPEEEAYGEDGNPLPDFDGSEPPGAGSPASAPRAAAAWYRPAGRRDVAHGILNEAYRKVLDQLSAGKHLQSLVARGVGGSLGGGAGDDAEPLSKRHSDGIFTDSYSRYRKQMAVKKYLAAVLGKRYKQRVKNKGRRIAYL

Molecule | Ki
H-FTDSYSRYRKQMAVKKYLAAVL-NH2 [PACAP(5-27)] | 60 nM
CC[C@H](C)[C@H](NC(=O)CNC(=O)[C@H](CC(=O)O)NC(=O)[C@@H](Cc1ccccc1)NC(=O)[C@H](Cc1cnc[nH]1)NC(C)=O)C(=O)N[C@@H](Cc1ccccc1)C(=O)N[C@H](C(=O)N[C@@H](CC(=O)O)C(=O)N[C@@H](CO)C(=O)N[C@@H](Cc1ccc(O)cc1)C(=O)N[C@@H](CO)C(=O)N[C@@H](CCCN=C(N)N)C(=O)N[C@@H](Cc1ccc(O)cc1)C(=O)N[C@@H](CCCN=C(N)N)C(=O)N[C@@H](CCCCN)C(=O)N[C@@H](CCC(N)=O)C(=O)N[C@@H](CCSC)C(=O)N[C@@H](C)C(=O)N[C@H](C(=O)N[C@@H](CCCCN)C(=O)N[C@@H](CCCCN)C(=O)N[C@@H](Cc1ccc(O)cc1)C(=O)N[C@@H](CC(C)C)C(=O)N[C@@H](C)C(=O)N[C@@H](C)C(=O)N[C@H](C(=O)N[C@@H](CC(C)C)C(=O)NCC(=O)N[C@@H](CCCCN)C(=O)N[C@@H](CCCN=C(N)N)C(=O)N[C@@H](Cc1ccc(O)cc1)C(=O)N[C@@H](CCCCN)C(=O)N[C@@H](CCC(N)=O)C(=O)N[C@@H](CCCN=C(N)N)C(=O)N[C@H](C(=O)N[C@@H](CCCCN)C(=O)N[C@@H](CC(N)=O)C(=O)N[C@@H](CCCCN)C(N)=O)C(C)C)C(C)C)C(C)C)[C@@H](C)O [[AcHis1,DPhe2]PACAP(1-38)] | 10 nM
H-TDSYSRYRKQMAVKKYLAAVLGKRYKQRVKNK-NH2 [PACAP(7-38)] | 8 nM

Other lines, results leading:

Ki | Molecule
1000 nM | CCC(C)[C@H](NC(=O)CNC(=O)[C@H](CC(=O)O)NC(=O)[C@@H](Cc1ccccc1)NC(=O)[C@H](Cc1cnc[nH]1)NC(C)=O)C(=O)N[C@@H](Cc1ccccc1)C(=O)N[C@H](C(=O)N[C@@H](CC(=O)O)C(=O)N[C@@H](CO)C(=O)N[C@@H](Cc1ccc(O)cc1)C(=O)N[C@@H](CO)C(=O)N[C@@H](CCCN=C(N)N)C(=O)N[C@@H](Cc1ccc(O)cc1)C(=O)N[C@@H](CCCN=C(N)N)C(=O)N[C@@H](CCCCN)C(=O)N[C@@H](CCC(N)=O)C(=O)N[C@@H](CCSC)C(=O)N[C@@H](C)C(=O)N[C@H](C(=O)N[C@@H](CCCCN)C(=O)N[C@@H](CCCCN)C(=O)N[C@@H](Cc1ccc(O)cc1)C(=O)N[C@@H](CC(C)C)C(=O)N[C@@H](C)C(=O)N[C@@H](C)C(=O)N[C@H](C(=O)N[C@@H](CC(C)C)C(N)=O)C(C)C)C(C)C)[C@@H](C)O (stereo partly specified) [[AcHis1,DPhe2]PACAP(1-27)]
5 nM | CCC(C)[C@H](N)C(=O)N[C@@H](Cc1ccccc1)C(=O)N[C@H](C(=O)N[C@@H](CC(=O)O)C(=O)N[C@@H](CO)C(=O)N[C@@H](Cc1ccc(O)cc1)C(=O)N[C@@H](CO)C(=O)N[C@@H](CCCN=C(N)N)C(=O)N[C@@H](Cc1ccc(O)cc1)C(=O)N[C@@H](CCCN=C(N)N)C(=O)N[C@@H](CCCCN)C(=O)N[C@@H](CCC(N)=O)C(=O)N[C@@H](CCSC)C(=O)N[C@@H](C)C(=O)N[C@H](C(=O)N[C@@H](CCCCN)C(=O)N[C@@H](CCCCN)C(=O)N[C@@H](Cc1ccc(O)cc1)C(=O)N[C@@H](CC(C)C)C(=O)N[C@@H](C)C(=O)N[C@@H](C)C(=O)N[C@H](C(=O)N[C@@H](CC(C)C)C(=O)NCC(=O)N[C@@H](CCCCN)C(=O)N[C@@H](CCCN=C(N)N)C(=O)N[C@@H](Cc1ccc(O)cc1)C(=O)N[C@@H](CCCCN)C(=O)N[C@@H](CCC(N)=O)C(=O)N[C@@H](CCCN=C(N)N)C(=O)N[C@H](C(=O)N[C@@H](CCCCN)C(=O)N[C@@H](CC(N)=O)C(=O)N[C@@H](CCCCN)C(N)=O)C(C)C)C(C)C)C(C)C)[C@@H](C)O (stereo partly specified) [PACAP(5-38)] (H-[Ile(3ξ)]FTDSYSRYRKQMAVKKYLAAVLGKRYKQRVKNK-NH2)
5 nM | CCC(C)[C@H](NC(=O)CN)C(=O)N[C@@H](Cc1ccccc1)C(=O)N[C@H](C(=O)N[C@@H](CC(=O)O)C(=O)N[C@@H](CO)C(=O)N[C@@H](Cc1ccc(O)cc1)C(=O)N[C@@H](CO)C(=O)N[C@@H](CCCN=C(N)N)C(=O)N[C@@H](Cc1ccc(O)cc1)C(=O)N[C@@H](CCCN=C(N)N)C(=O)N[C@@H](CCCCN)C(=O)N[C@@H](CCC(N)=O)C(=O)N[C@@H](CCSC)C(=O)N[C@@H](C)C(=O)N[C@H](C(=O)N[C@@H](CCCCN)C(=O)N[C@@H](CCCCN)C(=O)N[C@@H](Cc1ccc(O)cc1)C(=O)N[C@@H](CC(C)C)C(=O)N[C@@H](C)C(=O)N[C@@H](C)C(=O)N[C@H](C(=O)N[C@@H](CC(C)C)C(=O)NCC(=O)N[C@@H](CCCCN)C(=O)N[C@@H](CCCN=C(N)N)C(=O)N[C@@H](Cc1ccc(O)cc1)C(=O)N[C@@H](CCCCN)C(=O)N[C@@H](CCC(N)=O)C(=O)N[C@@H](CCCN=C(N)N)C(=O)N[C@H](C(=O)N[C@@H](CCCCN)C(=O)N[C@@H](CC(N)=O)C(=O)N[C@@H](CCCCN)C(N)=O)C(C)C)C(C)C)C(C)C)[C@@H](C)O (stereo partly specified) [PACAP(4-38)] (H-G[Ile(3ξ)]FTDSYSRYRKQMAVKKYLAAVLGKRYKQRVKNK-NH2)

— BindingDB's records for doi:10.1111/j.1432-1033.1992.tb17043.x (Universit&Eacute, 1992)
